Reference: ChEMBL document CHEMBL1201862, “PubChem BioAssay data set” (2004)
The source made the active and inactive calls.

Columns and labels:
[1] = cytotoxicity in HPDE-C7 cells, cell-based, fluorescence, HTS (AID 430); type: functional; conditions: Homo sapiens
[2] = target: NS3 (Hepatitis C virus, UniProt A3EZJ3); experiment: PubChem AID 2173; parameters: species or system Hepacivirus hominis
[3] = cytotoxicity in KRAS-transformed pancreatic duct cells, primary screen, cell-based, fluorescence, HTS (AID 431); type: functional; conditions: Homo sapiens;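 note: cell line used: HPDE-C7K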
[4] = target: T1, Neuropeptide Y receptor type 1 (Homo sapiens, UniProt P25929); type: functional;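 for IC50: HEK293 cells with a CNG channel challenged with NPY then isoproterenol; potency as antagonist that reverses NPY suppression of cAMP signal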
T1 sequence (P25929 whole entry): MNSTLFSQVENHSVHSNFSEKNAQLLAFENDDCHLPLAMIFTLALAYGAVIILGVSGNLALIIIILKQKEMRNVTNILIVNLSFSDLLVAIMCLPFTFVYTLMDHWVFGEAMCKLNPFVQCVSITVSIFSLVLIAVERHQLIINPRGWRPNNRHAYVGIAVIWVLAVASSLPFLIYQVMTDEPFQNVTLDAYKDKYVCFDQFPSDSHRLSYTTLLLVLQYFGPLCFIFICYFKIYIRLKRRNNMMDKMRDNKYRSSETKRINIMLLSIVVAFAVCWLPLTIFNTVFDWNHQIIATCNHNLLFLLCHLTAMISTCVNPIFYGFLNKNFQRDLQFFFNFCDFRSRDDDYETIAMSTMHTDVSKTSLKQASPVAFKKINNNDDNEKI

[5] = target: T2, Neuropeptide Y receptor type 2 (Homo sapiens, UniProt P49146); type: functional, cell-based;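 for IC50: HEK293 cells expressing the receptor and a CNG channel; stimulus was NPY near EC95 followed by isoproterenol to raise cAMP; antagonist potency measured as restoring cAMP signal that NPY suppresses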
T2 sequence (P49146 whole entry): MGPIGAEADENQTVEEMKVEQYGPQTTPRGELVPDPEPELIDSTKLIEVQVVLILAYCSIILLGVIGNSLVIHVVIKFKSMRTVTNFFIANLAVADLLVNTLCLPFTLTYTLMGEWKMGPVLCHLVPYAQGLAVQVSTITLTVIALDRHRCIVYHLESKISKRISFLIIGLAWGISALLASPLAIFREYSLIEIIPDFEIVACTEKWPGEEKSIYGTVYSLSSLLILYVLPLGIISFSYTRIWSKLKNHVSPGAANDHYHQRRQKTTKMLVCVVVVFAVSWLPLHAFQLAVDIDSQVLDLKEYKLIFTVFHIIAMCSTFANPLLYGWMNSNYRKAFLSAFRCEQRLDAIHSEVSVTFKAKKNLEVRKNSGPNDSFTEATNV

[6] = target: E3 ubiquitin-protein ligase XIAP (Homo sapiens, UniProt P98170); experiment: Counter Screen using XIAP-Bir3 for Chemical Antagonists of Bir1/2 domains of IAP-family anti-apoptotic proteins. [Related pubchem assays (depositor defined):AID1018, AID1449, AID1514, AID1638, AID1749, AID1750, AID488957, AID488963]
Chain of E3 ubiquitin-protein ligase XIAP (P98170 whole entry): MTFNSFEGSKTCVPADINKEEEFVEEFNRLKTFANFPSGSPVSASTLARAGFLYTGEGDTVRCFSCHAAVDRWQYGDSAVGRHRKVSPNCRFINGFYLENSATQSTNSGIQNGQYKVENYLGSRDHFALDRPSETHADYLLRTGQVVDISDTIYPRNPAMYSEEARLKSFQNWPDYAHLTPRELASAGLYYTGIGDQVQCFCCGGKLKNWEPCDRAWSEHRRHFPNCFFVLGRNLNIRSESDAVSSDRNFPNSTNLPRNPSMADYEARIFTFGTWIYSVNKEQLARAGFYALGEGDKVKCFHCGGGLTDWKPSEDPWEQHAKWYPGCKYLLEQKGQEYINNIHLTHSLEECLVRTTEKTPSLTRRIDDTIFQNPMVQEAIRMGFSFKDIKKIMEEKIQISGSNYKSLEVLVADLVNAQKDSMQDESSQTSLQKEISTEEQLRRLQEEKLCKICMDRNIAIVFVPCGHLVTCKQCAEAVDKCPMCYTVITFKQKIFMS

[7] = target: Beta-lactamase (Pseudomonas aeruginosa, UniProt Q79MP6);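 note: biochemical dose-response test of metallo-beta-lactamase enzyme inhibition, read out by epi-absorbance; purified recombinant IMP-1 metallo-beta-lactamase with nitrocefin as substrate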
Chain of Beta-lactamase (Pseudomonas aeruginosa, UniProt Q79MP6) (Q79MP6 whole entry): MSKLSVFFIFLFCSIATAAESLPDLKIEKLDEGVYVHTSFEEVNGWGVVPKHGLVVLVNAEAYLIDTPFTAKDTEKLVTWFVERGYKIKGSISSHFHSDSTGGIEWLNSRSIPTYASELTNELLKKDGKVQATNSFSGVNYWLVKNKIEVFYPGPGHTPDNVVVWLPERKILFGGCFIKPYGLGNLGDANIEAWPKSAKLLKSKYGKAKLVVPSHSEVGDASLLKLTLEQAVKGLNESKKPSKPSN

[8] = target: Beta-lactamase (Salmonella choleraesuis (strain SC-B67), UniProt Q5J463)
Chain of Beta-lactamase (Salmonella choleraesuis (strain SC-B67), UniProt Q5J463) (Q5J463 whole entry): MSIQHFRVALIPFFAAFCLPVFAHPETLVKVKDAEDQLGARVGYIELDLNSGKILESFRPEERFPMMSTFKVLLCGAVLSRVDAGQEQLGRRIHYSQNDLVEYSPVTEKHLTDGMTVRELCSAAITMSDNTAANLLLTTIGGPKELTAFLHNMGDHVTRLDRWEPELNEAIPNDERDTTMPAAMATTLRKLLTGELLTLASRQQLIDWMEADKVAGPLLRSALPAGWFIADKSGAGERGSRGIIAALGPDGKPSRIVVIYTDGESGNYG

[9] = target: T3, Insulin-degrading enzyme (Homo sapiens, UniProt P14735); experiment: activators of recombinant IDE enzyme, dose response, counter-screen for IDE activator project, biochemical, fluorescence polarization (AID 588681)
T3 sequence (P14735 whole entry): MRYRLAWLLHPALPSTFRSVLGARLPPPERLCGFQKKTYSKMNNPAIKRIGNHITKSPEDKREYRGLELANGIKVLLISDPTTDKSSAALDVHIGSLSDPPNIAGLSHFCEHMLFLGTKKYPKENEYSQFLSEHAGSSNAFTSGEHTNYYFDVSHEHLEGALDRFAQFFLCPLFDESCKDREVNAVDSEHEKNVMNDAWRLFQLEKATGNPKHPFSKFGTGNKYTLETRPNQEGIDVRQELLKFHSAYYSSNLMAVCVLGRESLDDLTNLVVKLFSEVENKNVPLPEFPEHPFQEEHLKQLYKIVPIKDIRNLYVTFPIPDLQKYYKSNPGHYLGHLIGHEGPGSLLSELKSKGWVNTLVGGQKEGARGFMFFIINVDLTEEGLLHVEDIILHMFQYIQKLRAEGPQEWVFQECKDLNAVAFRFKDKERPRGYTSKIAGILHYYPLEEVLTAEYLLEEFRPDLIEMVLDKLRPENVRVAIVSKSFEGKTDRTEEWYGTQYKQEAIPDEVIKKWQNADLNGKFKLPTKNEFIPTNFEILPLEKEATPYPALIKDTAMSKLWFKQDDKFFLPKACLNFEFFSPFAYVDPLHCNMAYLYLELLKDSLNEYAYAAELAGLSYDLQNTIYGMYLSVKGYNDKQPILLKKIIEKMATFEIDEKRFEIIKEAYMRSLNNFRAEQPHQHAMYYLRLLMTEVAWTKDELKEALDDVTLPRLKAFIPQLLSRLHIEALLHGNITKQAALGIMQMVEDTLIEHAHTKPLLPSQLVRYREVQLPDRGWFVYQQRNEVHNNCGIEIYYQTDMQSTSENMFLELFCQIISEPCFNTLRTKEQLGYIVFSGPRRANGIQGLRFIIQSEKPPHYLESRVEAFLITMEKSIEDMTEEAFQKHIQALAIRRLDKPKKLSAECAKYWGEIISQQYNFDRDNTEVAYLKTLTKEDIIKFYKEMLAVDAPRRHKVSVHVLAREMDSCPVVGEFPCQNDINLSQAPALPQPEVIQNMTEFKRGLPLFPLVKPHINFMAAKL

[10] = target: T3, Insulin-degrading enzyme; experiment: activators of endogenous IDE in HEK cells, dose response, cell-based, fluorescence polarization (AID 588439); type: functional
[11] = system: HEK293; experiment: HEK cell cytotoxicity by LDH release, dose response, cytotoxicity control for IDE activator project, fluorescence, HEK cells (AID 588440); type: functional, cell-based; conditions: Homo sapiens;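 note: cytotoxicity by LDH release measuring loss of membrane integrity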
[12] = system: HEK293; experiment: optical interference in Abeta FP readout, dose response, artefact control for IDE activator project, biochemical, fluorescence polarization (AID 588442); type: functional, cell-based; conditions: Homo sapiens
[13] = NIH-3T3 fibroblast cytotoxicity, dose response, cytotoxicity control, cell-based, fluorescence, Alamar Blue, secondary assay (AID 2327); type: functional;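 note: NIH-3T3 mouse fibroblasts cultured with fluconazole at 8 µg/mL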
[14] = C. albicans growth with fluconazole, confirmation, fluorescence, retest (AID 2467); type: functional, cell-based
[15] = target: Large T antigen (Simian virus 40, UniProt P03070); type: functional, Betapolyomavirus macacae;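 note: Confirmatory-stage PubChem screen for compounds that inhibit SV40 T antigen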
Chain of Large T antigen (P03070 whole entry, the tested form may be a part): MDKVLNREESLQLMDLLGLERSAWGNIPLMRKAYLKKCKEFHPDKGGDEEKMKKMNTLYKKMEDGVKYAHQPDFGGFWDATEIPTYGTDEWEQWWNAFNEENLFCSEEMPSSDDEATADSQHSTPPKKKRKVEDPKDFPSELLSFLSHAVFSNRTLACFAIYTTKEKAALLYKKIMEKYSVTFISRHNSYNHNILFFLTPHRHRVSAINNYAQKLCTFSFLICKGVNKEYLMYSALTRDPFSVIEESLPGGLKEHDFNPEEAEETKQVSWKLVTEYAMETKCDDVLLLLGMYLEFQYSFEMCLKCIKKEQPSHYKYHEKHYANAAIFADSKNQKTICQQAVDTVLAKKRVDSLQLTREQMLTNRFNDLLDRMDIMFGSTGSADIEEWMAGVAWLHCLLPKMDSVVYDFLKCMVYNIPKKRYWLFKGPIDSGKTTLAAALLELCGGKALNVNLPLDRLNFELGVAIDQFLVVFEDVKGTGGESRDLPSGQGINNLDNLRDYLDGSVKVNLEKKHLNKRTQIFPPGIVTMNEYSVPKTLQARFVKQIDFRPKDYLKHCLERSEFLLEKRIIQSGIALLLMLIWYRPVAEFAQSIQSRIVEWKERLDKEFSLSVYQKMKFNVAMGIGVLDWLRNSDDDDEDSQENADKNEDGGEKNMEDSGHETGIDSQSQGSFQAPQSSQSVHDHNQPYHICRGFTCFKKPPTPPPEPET

[16] = HIV-1 Env-mediated cell fusion inhibitors, dose response, CCR5-tropic Env (AID 2279); type: functional
[17] = target: T4, Serine/threonine-protein phosphatase (Candida dubliniensis (strain CD36 / CBS 7987 / NCPF 3949 / NRRLY-17841) (Yeast), UniProt B9W6M3); experiment: calcineurin pathway inhibitors in yeast reporter, dose response, S. cerevisiae, CDRE-lacZ, luminescence, secondary (AID 2388); type: functional, cell-based;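 note: yeast reporter cells carrying a calcineurin-responsive lacZ construct stimulated with calcium chloride; luminescent beta-galactosidase reporter signal in whole cells rather than isolated phosphatase activity; potency for inhibition where a drop in reporter signal means calcineurin blockade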
T4 sequence (B9W6M3 whole entry): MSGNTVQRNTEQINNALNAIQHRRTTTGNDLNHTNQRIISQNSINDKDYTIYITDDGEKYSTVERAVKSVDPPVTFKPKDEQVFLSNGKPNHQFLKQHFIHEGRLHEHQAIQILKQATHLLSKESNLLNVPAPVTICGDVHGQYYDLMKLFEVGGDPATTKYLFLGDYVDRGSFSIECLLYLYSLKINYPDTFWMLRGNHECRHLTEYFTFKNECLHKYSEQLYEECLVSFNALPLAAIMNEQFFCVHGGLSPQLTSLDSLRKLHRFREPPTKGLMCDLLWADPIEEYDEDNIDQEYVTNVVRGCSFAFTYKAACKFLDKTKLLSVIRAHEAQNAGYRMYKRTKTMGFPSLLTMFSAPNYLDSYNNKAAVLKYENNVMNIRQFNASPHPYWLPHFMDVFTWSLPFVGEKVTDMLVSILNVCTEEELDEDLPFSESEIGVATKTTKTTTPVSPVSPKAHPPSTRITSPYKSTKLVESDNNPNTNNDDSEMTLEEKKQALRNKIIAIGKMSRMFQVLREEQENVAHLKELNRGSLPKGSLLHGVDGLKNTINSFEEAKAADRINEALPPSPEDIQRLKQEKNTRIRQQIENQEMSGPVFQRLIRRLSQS

[18] = target: ATP-dependent molecular chaperone HSP82 (Candida albicans (strain WO-1) (Yeast), UniProt C4YTQ8); experiment: loss of DOC-induced GRE-beta-galactosidase reporter signal, dose response, Hsp90 inhibitor project, S. cerevisiae, luminescence (AID 2400); type: functional, cell-based;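 note: beta-galactosidase luminescence from glucocorticoid response element reporter as proxy for Hsp90 function; inhibitor potency where signal loss means Hsp90 inhibition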
Chain of ATP-dependent molecular chaperone HSP82 (C4YTQ8 whole entry): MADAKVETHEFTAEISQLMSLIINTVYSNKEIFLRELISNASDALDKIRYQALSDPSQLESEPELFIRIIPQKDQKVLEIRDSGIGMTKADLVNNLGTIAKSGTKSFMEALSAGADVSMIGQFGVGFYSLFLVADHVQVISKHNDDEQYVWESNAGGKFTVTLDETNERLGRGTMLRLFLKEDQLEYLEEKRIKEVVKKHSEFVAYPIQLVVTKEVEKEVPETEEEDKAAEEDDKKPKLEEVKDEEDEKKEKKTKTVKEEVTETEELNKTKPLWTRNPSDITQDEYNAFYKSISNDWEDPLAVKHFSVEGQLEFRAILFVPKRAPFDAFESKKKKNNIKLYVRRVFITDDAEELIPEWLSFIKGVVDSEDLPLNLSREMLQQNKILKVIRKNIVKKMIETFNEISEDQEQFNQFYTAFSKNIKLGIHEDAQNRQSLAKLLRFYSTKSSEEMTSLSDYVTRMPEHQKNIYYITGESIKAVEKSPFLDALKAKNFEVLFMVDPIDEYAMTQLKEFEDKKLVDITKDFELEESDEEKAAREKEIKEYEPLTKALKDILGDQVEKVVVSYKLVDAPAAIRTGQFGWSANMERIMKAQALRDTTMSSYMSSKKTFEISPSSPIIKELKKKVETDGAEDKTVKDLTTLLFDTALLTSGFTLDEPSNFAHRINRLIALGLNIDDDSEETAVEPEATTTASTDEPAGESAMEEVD

[19] = target: T2, Neuropeptide Y receptor type 2; experiment: Fluorescence counterscreen for potentiators or agonists of NPY-Y1: Cell-based high-throughput dose response assay for potentiators or agonists of NPY-Y2.; type: functional
[20] = target: T2, Neuropeptide Y receptor type 2; experiment: Fluorescence-based counterscreen for agonists of NPY-Y1: cell-based high-throughput dose response assay for agonists of NPY-Y2.; type: functional
[21] = system: Streptococcus sp. 'group A'; experiment: growth inhibition of control SK(-) GAS strain, dose response, counter-screen for streptokinase expression inhibitor project, luminescence, kanamycin, BacTiterGlo, confirmation (AID 1900); type: functional, organism-based
[22] = system: HEK293; experiment: Fluorescence-based counterscreen for potentiators or agonists of NPY-Y1: cell-based high-throughput dose response assay for inhibitors of cyclic nucleotide gated ion channel (CNGC) activity. In this assay, the parental HEK293 cell line transfected with a cyclic-nucleotide gated ion channel (CNGC)-based cAMP sensor is used to measure inhibition of isoproterenol-induced CNGC …; type: functional; conditions: Homo sapiens
[23] = target: T5, Streptokinase A (Streptococcus pyogenes serotype M1, UniProt P10520); experiment: S. pyogenes streptokinase expression inhibitors, potency, dose response, plasminogen activation absorbance, OD405 (AID 1914); type: functional, Streptococcus pyogenes M1 GAS;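 note: secreted streptokinase activity via plasminogen activation per viability signal from cell pellet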
T5 sequence (P10520 whole entry): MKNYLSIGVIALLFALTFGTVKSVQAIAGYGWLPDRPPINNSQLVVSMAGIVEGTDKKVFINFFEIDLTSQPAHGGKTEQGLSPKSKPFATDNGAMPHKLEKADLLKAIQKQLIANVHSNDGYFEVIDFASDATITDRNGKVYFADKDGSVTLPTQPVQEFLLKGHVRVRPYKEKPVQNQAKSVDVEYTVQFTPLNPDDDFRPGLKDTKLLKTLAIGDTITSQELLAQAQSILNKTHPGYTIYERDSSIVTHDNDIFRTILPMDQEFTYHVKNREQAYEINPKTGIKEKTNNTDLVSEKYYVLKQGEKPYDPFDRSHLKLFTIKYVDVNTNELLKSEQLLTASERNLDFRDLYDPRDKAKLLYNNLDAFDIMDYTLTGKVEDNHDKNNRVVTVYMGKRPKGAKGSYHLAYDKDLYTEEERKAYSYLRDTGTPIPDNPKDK

[24] = M. tuberculosis H37Rv growth inhibitors, H37Rv strain (AID 1626); type: functional
[25] = target: T1, Neuropeptide Y receptor type 1; experiment: Fluorescence-based dose response cell-based high-throughput screening assay for potentiators or agonists of NPY-Y1.; type: functional
[26] = system: Streptococcus; experiment: Group A Streptococcus viability loss, dose response, counter-screen for streptokinase expression inhibitor project, luminescence, BacTiterGlo (AID 1915); type: functional, organism-based;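 note: potency for reduction of bacterial viability or growth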

Chain of NS3 (A3EZJ3 whole entry): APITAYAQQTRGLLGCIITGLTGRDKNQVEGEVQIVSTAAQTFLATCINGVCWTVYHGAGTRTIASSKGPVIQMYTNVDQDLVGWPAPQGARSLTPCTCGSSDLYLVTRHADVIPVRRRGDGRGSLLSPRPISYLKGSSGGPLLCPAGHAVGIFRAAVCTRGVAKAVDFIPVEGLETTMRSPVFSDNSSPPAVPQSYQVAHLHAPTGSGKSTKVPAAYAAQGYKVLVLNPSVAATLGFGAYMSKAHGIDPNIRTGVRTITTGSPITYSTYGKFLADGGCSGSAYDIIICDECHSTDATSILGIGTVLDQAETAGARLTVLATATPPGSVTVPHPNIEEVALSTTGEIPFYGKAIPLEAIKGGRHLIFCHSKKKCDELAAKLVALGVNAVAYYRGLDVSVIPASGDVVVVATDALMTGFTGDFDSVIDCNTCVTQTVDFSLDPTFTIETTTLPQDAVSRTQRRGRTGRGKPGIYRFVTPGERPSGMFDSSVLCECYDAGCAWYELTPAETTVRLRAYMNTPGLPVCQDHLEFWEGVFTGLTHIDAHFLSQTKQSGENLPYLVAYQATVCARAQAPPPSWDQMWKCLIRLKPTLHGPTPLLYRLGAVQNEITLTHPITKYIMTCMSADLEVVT

O=C(c1ccc2nc(-c3ccco3)c(-c3ccco3)nc2c1)N1CCN(c2ccccc2)CC1
EC50 [1]: 18 µM (active)
IC50 [2]: 19.7 µM (not active)
EC50 [3]: > 20 µM (not active)

CCCCNC(=O)c1onc(CSc2ccccc2F)c1C(=O)O
IC50 [4]: 14.7 µM (not active)
IC50 [5]: 13.3 µM (not active)

Nn1c(Cc2cccc3ccccc23)nnc1SCc1c(Cl)cccc1Cl
IC50 [4]: 5.1 µM (active)
IC50 [5]: 4.3 µM (active)

O=c1ccc2c(-c3ccccc3)c3ccc(O)cc3oc-2c1
IC50 [2]: 7.38 µM (active)
IC50 [6]: > 20 µM (inactive)
IC50 [7]: 0.399 µM (active)
IC50 [8]: 0.19 µM (active)
EC50 [9]: > 54.6 µM (inactive)
EC50 [10]: > 54.6 µM (inactive)
IC50 [11]: > 89.1 µM (inactive)
EC50 [12]: > 54.6 µM (inactive)

O=C(N/N=C/c1cc(Br)c(O)c(Br)c1)c1cc2c(ccc3ccccc32)o1
EC50 [13]: 64.7 µM (active)
EC50 [14]: 1.45 µM (active)
IC50 [15]: 19.9 µM (active)
IC50 [16]: > 50 µM (active)
EC50 [17]: 2.58 µM (active)
EC50 [18]: 0.763 µM (active)

Clc1ccc(-n2c(-c3cccc(Br)c3)nc3nc4ccccc4nc32)cc1
EC50 [19]: 12 µM (not active)
EC50 [20]: 2.98 µM (active)
EC50 [21]: 1.58 µM (active)
IC50 [22]: 5.7 µM (active)
EC50 [23]: > 150 µM (not active)
IC50 [24]: > 100 µM (active)
EC50 [25]: 10.1 µM (not active)
EC50 [26]: 79.4 µM (active)
